Laboratory results as given in US6479435B1, “Diaryl ethers and processes for their preparation and herbicidal and desiccant compositions containing them” (ISK Americas Incorporated, priority 1997, dated 2002).

Assays:
Assay type in all cases: in vivo
[1] = test system: velvetleaf (Abutilon theophrasti, ABUTH); assay: Post-emerge greenhouse herbicide test, phytotoxicity rating; settings: 14 days after application, scale 0-100
Summary of the method: (§1)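 Scores use a 0 (no damage) to 100 (complete kill) scale, taken 14 days after a foliar spray. Acetone solutions with 0.25% v/v non-ionic surfactant were applied by track sprayer at 187 l/ha and 63-1000 g ai/ha to bottom-watered 2-3 leaf plants.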

[2] = test system: sicklepod (Cassia obtusifolia, CASOB); assay: as above; settings: 14 days after application, scale 0-100
Summary of the method: as §1

[3] = test system: barnyardgrass (Echinochloa crusgalli, ECHCG); assay: as above; settings: 14 days after application, scale 0-100
Summary of the method: as §1

[4] = test system: large crabgrass (Digitaria sanguinalis, DIGSA); assay: as above; settings: 14 days after application, scale 0-100
Summary of the method: as §1

[5] = test system: green foxtail (Setaria viridis, SETVI); assay: as above; settings: 14 days after application, scale 0-100
Summary of the method: as §1

[6] = test system: redroot pigweed (Amaranthus retroflexus, AMARE); assay: as above; settings: 14 days after application, scale 0-100
Summary of the method: as §1

[7] = test system: ivyleaf morningglory (Ipomoea hederacea, IPOHE); assay: as above; settings: 14 days after application, scale 0-100
Summary of the method: as §1

[8] = test system: Johnsongrass (Sorghum halepense, SORHA); assay: as above; settings: 14 days after application, scale 0-100
Summary of the method: as §1

[9] = test system: lambsquarters (Chenopodium album, CHEAL); assay: as above; settings: 14 days after application, scale 0-100
Summary of the method: as §1

[10] = test system: velvetleaf (Abutilon theophrasti, ABUTH); assay: Pre-emerge greenhouse herbicide test, phytotoxicity rating; settings: 14 days after application, rating scale 0-100
Summary of the method: (§2)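 Visual 0–100 injury rating (100 = all plants dead) taken 14 days after treatment. Rates of 125–1000 g ai/ha in acetone, 187 l/ha, were sprayed onto soil one day post-sowing; pots were surface-watered to incorporate, then bottom-watered.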

[11] = test system: sicklepod (Cassia obtusifolia, CASOB); assay: as above; settings: 14 days after application, rating scale 0-100
Summary of the method: as §2

[12] = test system: common ragweed (Ambrosia artemisiifolia L., AMBEL); assay: as above; settings: 14 days after application, rating scale 0-100
Summary of the method: as §2

[13] = test system: barnyardgrass (Echinochloa crusgalli, ECHCG); assay: as above; settings: 14 days after application, rating scale 0-100
Summary of the method: as §2

[14] = test system: large crabgrass (Digitaria sanguinalis, DIGSA); assay: as above; settings: 14 days after application, rating scale 0-100
Summary of the method: as §2

[15] = test system: green foxtail (Setaria viridis, SETVI); assay: as above; settings: 14 days after application, rating scale 0-100
Summary of the method: as §2

[16] = test system: redroot pigweed (Amaranthus retroflexus, AMARE); assay: as above; settings: 14 days after application, rating scale 0-100
Summary of the method: as §2

[17] = test system: ivyleaf morningglory (Ipomoea hederacea, IPOHE); assay: as above; settings: 14 days after application, rating scale 0-100
Summary of the method: as §2

[18] = test system: Johnsongrass (Sorghum halepense, SORHA); assay: as above; settings: 14 days after application, rating scale 0-100
Summary of the method: as §2

[19] = test system: lambsquarters (Chenopodium album, CHEAL); assay: as above; settings: 14 days after application, rating scale 0-100
Summary of the method: as §2

[20] = test system: field corn (Zea mays L., var. Dekalb 535, CORN); assay: Pre-emerge greenhouse test, crop damage rating; settings: 14 days after application, rating scale 0-100
Summary of the method: as §2

[21] = test system: upland rice (Oryza sp., var.Tebonnet, RICE); assay: Pre-emerge greenhouse test, crop damage rating; settings: 14 days after application, rating scale 0-100
Summary of the method: as §2

[22] = test system: soybean (Glycine max L., var. Pella 86, SOY); assay: Post-emerge greenhouse test, crop damage rating; design: key to crop damage rating SOY: 0-100 scale: 0 = no damage, 100 = complete death of all plants; settings: 14 days after application, scale 0-100
Summary of the method: as §1

[23] = test system: soybean (Glycine max L., var. Pella 86, SOY); assay: Pre-emerge greenhouse test, crop damage rating; design: key to SOY crop damage rating: 0 = no damage, 100 = complete death of all plants; settings: 14 days after application, rating scale 0-100
Summary of the method: as §2

[24] = test system: field corn (Zea mays L., var. Dekalb 535, CORN); assay: Post-emerge greenhouse test, crop damage rating; settings: 14 days after application, scale 0-100
Summary of the method: as §1

[25] = test system: upland rice (Oryza sp., var.Tebonnet, RICE); assay: Post-emerge greenhouse test, crop damage rating; settings: 14 days after application, scale 0-100
Summary of the method: as §1

[26] = test system: common ragweed (Ambrosia artemisiifolia L., AMBEL); assay: Post-emerge greenhouse herbicide test, phytotoxicity rating; settings: 14 days after application, scale 0-100
Summary of the method: as §1

## N#Cc1cccnc1Oc1cc(-n2c(=O)n3n(c2=S)CCCC3)c(F)cc1Cl [Compound 8-20]
[1]; rate 63 g ai/ha
  phytotoxicity rating ABUTH: 100
[1]; rate 500 g ai/ha
  phytotoxicity rating ABUTH: 100
[2]; rate 63 g ai/ha
  phytotoxicity rating CASOB: 90
[2]; rate 500 g ai/ha
  phytotoxicity rating CASOB: 100
[3]; rate 63 g ai/ha
  phytotoxicity rating ECHCG: 20
[3]; rate 500 g ai/ha
  phytotoxicity rating ECHCG: 40
[4]; rate 63 g ai/ha
  phytotoxicity rating DIGSA: 30
[4]; rate 500 g ai/ha
  phytotoxicity rating DIGSA: 30
[5]; rate 63 g ai/ha
  phytotoxicity rating SETVI: 70
[5]; rate 500 g ai/ha
  phytotoxicity rating SETVI: 0
[6]; rate 63 g ai/ha
  phytotoxicity rating AMARE: 100
[6]; rate 500 g ai/ha
  phytotoxicity rating AMARE: 100
[7]; rate 63 g ai/ha
  phytotoxicity rating IPOHE: 100
[7]; rate 500 g ai/ha
  phytotoxicity rating IPOHE: 100
[8]; rate 63 g ai/ha
  phytotoxicity rating SORHA: 90
[8]; rate 500 g ai/ha
  phytotoxicity rating SORHA: 100
[9]; rate 63 g ai/ha
  phytotoxicity rating CHEAL: 95
[9]; rate 500 g ai/ha
  phytotoxicity rating CHEAL: 100
[10]; Rate 125 g al/ha
  ABUTH phytotoxicity rating: 100
[10]; Rate 500 g al/ha
  ABUTH phytotoxicity rating: 100
[11]; Rate 125 g al/ha
  CASOB phytotoxicity rating: 90
[11]; Rate 500 g al/ha
  CASOB phytotoxicity rating: 100
[12]; Rate 125 g al/ha
  AMBEL phytotoxicity rating: 90
[12]; Rate 500 g al/ha
  AMBEL phytotoxicity rating: 100
[13]; Rate 125 g al/ha
  ECHCG phytotoxicity rating: 60
[13]; Rate 500 g al/ha
  ECHCG phytotoxicity rating: 80
[14]; Rate 125 g al/ha
  DIGSA phytotoxicity rating: 40
[14]; Rate 500 g al/ha
  DIGSA phytotoxicity rating: 100
[15]; Rate 125 g al/ha
  SETVI phytotoxicity rating: 95
[15]; Rate 500 g al/ha
  SETVI phytotoxicity rating: 100
[16]; Rate 125 g al/ha
  AMARE phytotoxicity rating: 100
[16]; Rate 500 g al/ha
  AMARE phytotoxicity rating: 100
[17]; Rate 125 g al/ha
  IPOHE phytotoxicity rating: 95
[17]; Rate 500 g al/ha
  IPOHE phytotoxicity rating: 100
[18]; Rate 125 g al/ha
  SORHA phytotoxicity rating: 40
[18]; Rate 500 g al/ha
  SORHA phytotoxicity rating: 90
[19]; Rate 125 g al/ha
  CHEAL phytotoxicity rating: 100
[19]; Rate 500 g al/ha
  CHEAL phytotoxicity rating: 100
[20]; Rate 125 g al/ha
  CORN crop damage rating: 5
[20]; Rate 500 g al/ha
  CORN crop damage rating: 10
[21]; Rate 125 g al/ha
  RICE crop damage rating: 20
[21]; Rate 500 g al/ha
  RICE crop damage rating: 40
[22]; rate 63 g ai/ha
  crop damage rating SOY: 90
[22]; rate 500 g ai/ha
  crop damage rating SOY: 100
[23]; Rate 125 g al/ha
  SOY crop damage rating: 20
[23]; Rate 500 g al/ha
  SOY crop damage rating: 25
[24]; rate 63 g ai/ha
  crop damage rating CORN: 15
[24]; rate 500 g ai/ha
  crop damage rating CORN: 20
[25]; rate 63 g ai/ha
  crop damage rating RICE: 15
[25]; rate 500 g ai/ha
  crop damage rating RICE: 60
[26]; rate 63 g ai/ha
  phytotoxicity rating AMBEL: 90
[26]; rate 500 g ai/ha
  phytotoxicity rating AMBEL: 100
